Measured values: PMC7503767, “Alkoxyamines Designed as Potential Drugs against Plasmodium and Schistosoma Parasites” (Molecules, 2020)

Tested on: Adult S. mansoni
Assay: In vitro antischistosomal activity on adult worms
Type: cell-based, Schistosoma mansoni
Details: for Mean (±SD) survival time – Adult S. mansoni / Time for the death of 100% worms: 100 µg/mL; for Mean (±SD) survival time – Adult S. mansoni: observation up to 8 h (Table S1)
Description: The NMRI strain of Schistosoma mansoni was used for the experimentations. The parasite was maintained on an albino variety of Biomphalaria glabrata from Brazil (intermediate host) and in Golden Hamsters, Mesocricetus auratus (Janvier Labs, Le Genest-Saint-Isle, France). Detailed methods, for mollusk and hamster infections and for parasite recovery, were previously described.
Adult worms were recovered between 42 and 47 days after infection by hepatic perfusion technique. Twenty to fifty adult worms were disposed in 12-well Falcon® plate containing 2 mL of RPMI 1640 (supplemented with L-glutamine and Hepes 25 mM) and stored in an incubator chamber (37 °C; 5% CO2). Drug preparation started with dissolution of the drug in DMSO to give a 100 mg/mL stock solution. The dilution was complemented with Tween 80 and RPMI in order to obtain the following final ratio dilution: RPMI 1640/Tween 80/DMSO, 1000/0.95/3.8, v/v/v. The drug solution was added to Falcon plates that contained adult worms. The S. mansoni cultures were then incubated with each drug at a final concentration of 100 µg/mL. Positive control was carried out with a solution of praziquantel (Merck KGaA, Darmstadt, Germany) at a concentration of 100 µg/mL. Negative control was carried out with the same RPMI 1640/Tween 80/DMSO solution, but without any drug. Each test was performed in duplicate. Every hour, moving worms were counted in order to define the percentage of survivors. Parasites showing no body contractions during a 30 s observation were considered as dead. Observations were extended to 8 h. Mean survival times (± standard deviation) were calculated for each drug using Kaplan–Meier survival analyses.

[1] = adult S. mansoni, observation up to 8 h

| Molecule | Mean (±SD) survival time – Adult S. mansoni [h] | Time for the death of 100% worms [1] [h] | S. mansoni Mean Survival Time (adult S. mansoni, single dose 100 µg/mL, observation up to 8 h) [h] |
| --- | --- | --- | --- |
| CC(ON1C(C)(C)CC(O)CC1(C)C)c1ccccc1 (centres unmarked) [8z] | 1.9 ± 0.1 | 2 |  |
| CCOP(=O)(OCC)C(N(OC(C)c1cccnc1)C(C)(C)CO)C(C)(C)C (centres unmarked) [2b] | > 8 | > 8 |  |
| CC(ON1C(C)(C)CC(O)CC1(C)C)c1cccnc1 (centres unmarked) [8b] | > 8 | > 8 |  |
| CC(ON1C(C)(C)CCCC1(C)C)c1cccnc1 (centres unmarked) [9b] |  | 3 |  |
| CCOP(=O)(OCC)C(N(OC(C)c1ccc(C)cc1)C(C)(C)C)C(C)(C)C (centres unmarked) [(RS/SR)-1s] | 3.3 ± 0.1 | 4 |  |
| CCOP(=O)(OCC)C(N(OC(C)c1ccncc1)C(C)(C)CO)C(C)(C)C (centres unmarked) [2a] | > 8 | > 8 |  |
| CCOP(=O)(OCC)C(N(OC(C)c1cn(C)cn1)C(C)(C)C)C(C)(C)C (centres unmarked) [(RS/SR)-1q] | 1.3 ± 0.2 | 2 |  |
| CCOP(=O)(OCC)C(N(OC(C)c1ccccc1)C(C)(C)C(=O)OC)C(C)(C)C (centres unmarked) [(RS/SR)-5z] | > 8 | > 8 |  |
| CCOP(=O)(OCC)C(N(OC(C)c1cn(C)cn1)C(C)(C)C)C(C)(C)C (centres unmarked) [(RR/SS)-1q] | 3.3 ± 0.9 | 6 |  |
| CC(ON1C(C)(C)CCCC1(C)C)c1ccccc1 (centres unmarked) [9z] | > 8 | > 8 |  |
| CC(ON(C(C)(C)C)C(C)(C)C)c1ccncc1 (centres unmarked) [14a] | 2.5 ± 0.10 | 3 |  |
| CCOP(=O)(OCC)C(N(OC(C)c1ccc(C)cc1)C(C)(C)C)C(C)(C)C (centres unmarked) [(RR/SS)-1s] | > 8 | > 8 |  |
| O=C(C1CCCCC1)N1CC(=O)N2CCc3ccccc3C2C1 (centres unmarked) [Praziquantel, praziquantel, reference compound] | 1.0 ± 0.05 | 1 | 1.0 ± 0.05 |
| CCOP(=O)(OCC)C(N(OC(C)n1cc[n+](C)c1)C(C)(C)C)C(C)(C)C.Cc1ccc(S(=O)(=O)[O-])cc1 (centres unmarked) [(RS/SR)-1n] | > 8 | > 8 |  |
| CCOP(=O)(OCC)C(N(OC(C)c1cn(C)c[n+]1C)C(C)(C)C)C(C)(C)C.[I-] (centres unmarked) [(RS/SR)-1r] |  | 6 |  |
| CCOP(=O)(OCC)[C@@H](N(O[C@H](C)n1cc[n+](C)c1)C(C)(C)C)C(C)(C)C.Cc1ccc(S(=O)(=O)[O-])cc1 (relative stereo) [(RR/SS)-1n] | > 8 | > 8 |  |
| CCOP(=O)(OCC)C(N(OC(C)c1ccccc1)C(C)(C)C(=O)O)C(C)(C)C (centres unmarked) [(RS/SR)-4z] | > 8 | > 8 |  |
| 4-hydroxy-tetramethylpiperidine-N-oxyl [compound 8] | > 8 | > 8 |  |
| CCOP(=O)(OCC)C(N(OC(C)c1cn(C)c[n+]1C)C(C)(C)C)C(C)(C)C.[I-] (centres unmarked) [(RR/SS)-1r] |  | 4 |  |
| CC(ON1C(C)(C)CC(O)CC1(C)C)c1ccncc1 (centres unmarked) [8a] | > 8 | > 8 |  |
